Common to all, as to format: functional, cell-based
Experiment [1] has as its system KB. Put plainly: Cytotoxicity against human KB cells by SRB assay. On the technique in general: Sulforhodamine B stains cellular protein and so reports cell mass.
Experiment [2] concerns Lu1. The experiment is described as follows: Cytotoxicity against human Lu1 cells by SRB assay.
Experiment [3] has as its system LNCaP. The experiment is described as follows: Cytotoxicity against human LNCAP cells by SRB assay.
Experiment [4] can be described thus: Cytotoxicity against human vinblastine-resistant KBV1 cells by SRB assay in absence of vinblastine. To be noted: KB-V1.
Experiment [5] can be described thus: Cytotoxicity against human vinblastine-resistant KBV1 cells by SRB assay in presence of vinblastine. Conditions: KB-V1.
Experiment [6] is described as follows: Cytotoxicity against human BC1 cells by SRB assay.
Experiment [7] has as its system Col2. Put plainly: Cytotoxicity against human Col2 cells by SRB assay.

For one molecule, IC50 results are on record in ChEMBL document CHEMBL1146431, “Isolation and structure elucidation of ardisenone: a new, cytotoxic alkenylphenol from Ardisia iwahigensis” (J Nat Prod, 1997).

Converted amounts (≈) assume the structure as drawn.

The IC50 is the concentration that inhibits the measured activity by half.

Take `COc1cc(O)cc(CC(=O)CCC/C=C\CCCCCCCCC(=O)c2cc(O)cc(OC)c2)c1` [ARDISENONE]: the IC50 was found to be 13 µg/mL (≈ 26.2 µM) in experiment [1]; 4.9 µg/mL (≈ 9.87 µM) in experiment [2]; 11 µg/mL (≈ 22.1 µM) in experiment [3]; 6.9 µg/mL (≈ 13.9 µM) in experiment [4]; 8 µg/mL in experiment [5]; 8.5 µg/mL (≈ 17.1 µM) in experiment [6]. This molecule also had an IC50 in experiment [7] of 15 µg/mL (≈ 30.2 µM).
